Results published in patent US7935853B2, “Micronized composition of a 2,4-disubstituted phenol derivative” (priority 2008, dated 2011).

Test system: arthritis induced by injection of type II collagen in the mouse
Assay: Model of arthritis induced by type II collagen in mice (CIA), hind paw plethysmometry
Format: in vivo
Conditions: for Total hind paw volume (sum of both hind paws) / Oedema (difference in paw volume from basal values on day 21) in both hind paws: group mean n=10
Description: The aim of the study was to determine the anti-inflammatory activity of the test item in a model of arthritis induced by injection of type II collagen in the mouse (CIA) and to compare the activity of two different formulations: micronized and non-micronized.
Induction of arthritis was carried out by an initial exposure to type II bovine collagen by a subcutaneous injection at the base of the tail (induction phase).
After a recovery time of 21 days, animals received a booster injection and approximately 4-5 weeks after the first injection there was an immune response with arthritis appearing in the extremities in the majority of the cases.
Four experimental groups were used in the study with 10 animals in each group:
Group D: Positive control: FCA+vehicle B.I.D.
Group E: Micronized Test Item (Micro) 10 mg/kg B.I.D.
Group F: Non-Micronized test item 10 mg/kg B.I.D.
Group G: Reference item: Indomethacin 1 mg/kg Q.D.
The dose administered to groups E and F was 10 mg/kg.
The dose administered to group G was 1 mg/kg.
The doses of the test and reference items were expressed as mg/Kg of compound administered to each animal.
The test and reference items were administered in a solution of methylcellulose (0.25%: vehicle).
The positive control group received the vehicle (methylcellulose 0.25%).
The test and reference items, as well as the vehicle were administered orally at a dosing volume of 5 mls/kg.
The route of administration used was oral by use of an intragastric cannula.
On the day of start of the study each mouse was injected subcutaneously at the base of the tail with a first dose of 0.1 ml of an emulsion of bovine type II collagen (1 mg/mL) in Freund's Complete Adjuvant. Afterwards, on day 21 after this first injection, a second booster injection of type II collagen was administered to all animals. In this occasion the collagen suspension was done using Incomplete Freund's Adjuvant.
Coinciding with the second booster injection on day 21 treatment with the test or reference items was started to the corresponding animals.
Treatment with the test or reference items was carried out for 31 consecutive days (days 21-51 of the experimental period). Additionally, a recovery period was included at the end of the treatment period from day 52 to day 65 in order to evaluate the duration of any anti-inflammatory effect observed once dosing has been terminated.
The animals' hind paw volume was measured by plethysmometry one day before the 1st injection of collagen, again one day before the second (booster) collagen injection (basal values) and then daily after administration of test/reference item until the end of the study. During the recovery period at the end of the study, hind paw volume was measured three times per week.
Additionally the data was also represented graphically, depicting changes in total hind paw volume, as well as oedema (differences from basal (day 21) values).

[1] = day 22, oral treatment days 21-51, listed as Group F
[2] = day 23, oral treatment days 21-51, listed as Group F
[3] = day 26, oral treatment days 21-51, listed as Group F
[4] = day 27, oral treatment days 21-51, listed as Group F
[5] = day 29, oral treatment days 21-51, listed as Group F
[6] = day 30, oral treatment days 21-51, listed as Group F
[7] = day 33, oral treatment days 21-51, listed as Group F
[8] = day 34, oral treatment days 21-51, listed as Group F
[9] = day 35, oral treatment days 21-51, listed as Group F
[10] = day 36, oral treatment days 21-51, listed as Group F
[11] = day 37, oral treatment days 21-51, listed as Group F
[12] = day 41, oral treatment days 21-51, listed as Group F
[13] = day 42, oral treatment days 21-51, listed as Group F
[14] = day 43, oral treatment days 21-51, listed as Group F
[15] = day 44, oral treatment days 21-51, listed as Group F
[16] = day 47, oral treatment days 21-51, listed as Group F
[17] = day 48, oral treatment days 21-51, listed as Group F
[18] = day 49, oral treatment days 21-51, listed as Group F
[19] = day 50, oral treatment days 21-51, listed as Group F
[20] = day 51, oral treatment days 21-51, listed as Group F
[21] = day 54, recovery period after treatment days 21-51, listed as Group F
[22] = day 56, recovery period after treatment days 21-51, listed as Group F
[23] = day 58, recovery period after treatment days 21-51, listed as Group F
[24] = day 61, recovery period after treatment days 21-51, listed as Group F
[25] = day 63, recovery period after treatment days 21-51, listed as Group F
[26] = day 65, recovery period after treatment days 21-51, listed as Group F

Oc1c(I)cc(I)cc1I [Non-Micronized, 2,4,6-triiodophenol]
Total hind paw volume (sum of both hind paws) (day 0, before collagen and treatment, listed as Group F): 0.189 | Total hind paw volume (sum of both hind paws) (day 20, basal, before treatment, listed as Group F): 0.243 | Oedema (difference in paw volume from basal values on day 21) in both hind paws [1]: −0.003 | Total hind paw volume (sum of both hind paws) [1]: 0.240 | Oedema (difference in paw volume from basal values on day 21) in both hind paws [2]: 0.007 | Total hind paw volume (sum of both hind paws) [2]: 0.250 | Oedema (difference in paw volume from basal values on day 21) in both hind paws [3]: 0.010 | Total hind paw volume (sum of both hind paws) [3]: 0.253 | Oedema (difference in paw volume from basal values on day 21) in both hind paws [4]: −0.001 | Total hind paw volume (sum of both hind paws) [4]: 0.242 | Oedema (difference in paw volume from basal values on day 21) in both hind paws [5]: 0.006 | Total hind paw volume (sum of both hind paws) [5]: 0.248 | Oedema (difference in paw volume from basal values on day 21) in both hind paws [6]: 0.016 | Total hind paw volume (sum of both hind paws) [6]: 0.259 | Oedema (difference in paw volume from basal values on day 21) in both hind paws [7]: 0.007 | Total hind paw volume (sum of both hind paws) [7]: 0.250 | Oedema (difference in paw volume from basal values on day 21) in both hind paws [8]: 0.011 | Total hind paw volume (sum of both hind paws) [8]: 0.254 | Oedema (difference in paw volume from basal values on day 21) in both hind paws [9]: 0.013 | Total hind paw volume (sum of both hind paws) [9]: 0.255 | Oedema (difference in paw volume from basal values on day 21) in both hind paws [10]: 0.011 | Total hind paw volume (sum of both hind paws) [10]: 0.254 | Oedema (difference in paw volume from basal values on day 21) in both hind paws [11]: 0.000 | Total hind paw volume (sum of both hind paws) [11]: 0.243 | Total hind paw volume (sum of both hind paws) (day 40, oral treatment days 21-51): 0.273 | Oedema (difference in paw volume from basal values on day 21) in both hind paws (day 40, oral treatment days 21-51, listed as Group F): 0.030 | Oedema (difference in paw volume from basal values on day 21) in both hind paws [12]: 0.028 | Total hind paw volume (sum of both hind paws) [12]: 0.271 | Oedema (difference in paw volume from basal values on day 21) in both hind paws [13]: 0.021 | Total hind paw volume (sum of both hind paws) [13]: 0.264 | Oedema (difference in paw volume from basal values on day 21) in both hind paws [14]: 0.013 | Total hind paw volume (sum of both hind paws) [14]: 0.255 | Oedema (difference in paw volume from basal values on day 21) in both hind paws [15]: 0.006 | Total hind paw volume (sum of both hind paws) [15]: 0.248 | Oedema (difference in paw volume from basal values on day 21) in both hind paws [16]: 0.031 | Total hind paw volume (sum of both hind paws) [16]: 0.273 | Oedema (difference in paw volume from basal values on day 21) in both hind paws [17]: 0.034 | Total hind paw volume (sum of both hind paws) [17]: 0.277 | Oedema (difference in paw volume from basal values on day 21) in both hind paws [18]: 0.039 | Total hind paw volume (sum of both hind paws) [18]: 0.281 | Oedema (difference in paw volume from basal values on day 21) in both hind paws [19]: 0.046 | Total hind paw volume (sum of both hind paws) [19]: 0.289 | Oedema (difference in paw volume from basal values on day 21) in both hind paws [20]: 0.046 | Total hind paw volume (sum of both hind paws) [20]: 0.288 | Oedema (difference in paw volume from basal values on day 21) in both hind paws [21]: 0.065 | Total hind paw volume (sum of both hind paws) [21]: 0.307 | Oedema (difference in paw volume from basal values on day 21) in both hind paws [22]: 0.062 | Total hind paw volume (sum of both hind paws) [22]: 0.304 | Oedema (difference in paw volume from basal values on day 21) in both hind paws [23]: 0.070 | Total hind paw volume (sum of both hind paws) [23]: 0.312 | Oedema (difference in paw volume from basal values on day 21) in both hind paws [24]: 0.063 | Total hind paw volume (sum of both hind paws) [24]: 0.31 | Oedema (difference in paw volume from basal values on day 21) in both hind paws [25]: 0.073 | Total hind paw volume (sum of both hind paws) [25]: 0.32 | Oedema (difference in paw volume from basal values on day 21) in both hind paws [26]: 0.072 | Total hind paw volume (sum of both hind paws) [26]: 0.31 | effect on hind paw oedema (in words) (test item 10 mg/kg BID, Indomethacin 1 mg/kg Q.D, oral): did not result in any significant inhibition
